Where “and” joins values, the source holds several entries; their conditions need not be identical. Equal values may be shown once.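 Compound exposure: 48 hours, 5 concentrations, 96-well plates. GI50 is the concentration that inhibits growth by half. At the TGI there is no net growth.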
Legend:
Test in all cases: NCI anticancer screen, dose series, 48 h
[1] = tested on: SW-620 colon
[2] = tested on: HOP-62 NSCLC
[3] = tested on: SNB-19 CNS
[4] = tested on: UO-31 renal
[5] = tested on: A549 NSCLC
[6] = tested on: OVCAR-5 ovarian
[7] = tested on: HOP-92 NSCLC
[8] = tested on: HT29 colon
[9] = tested on: NCI-H460 lung
[10] = tested on: A498 renal

SMILES	TGI [1] [µM]	TGI [2]	TGI [3]	TGI [4] [µM]	TGI [5] [µM]	TGI [6] [µM]	TGI [7]	TGI [8] [µM]	TGI [9] [µM]	TGI [10]	GI50 [1] [µM]	GI50 [2] [µM]	GI50 [3] [µM]	GI50 [4] [µM]	GI50 [5] [µM]	GI50 [6] [µM]	GI50 [7] [µM]	GI50 [8] [µM]	GI50 [9] [µM]	GI50 [10] [µM]
S=c1[nH]c2c(Cl)c(Cl)c(Cl)c(Cl)c2[nH]1	49.2	80.2 µM	81.3 µM	43.2	> 100	65	53.6 µM	48.1	40.6	46.5 µM	–	–	–	–	–	–	–	–	–	–
CC1(C)N=C(N)N=C(N)N1c1ccc(CCCCc2ccc(Cl)c(S(=O)(=O)F)c2)c(Cl)c1	15.4	> 43.7 µM	20.6 µM	28.5	3.98	27.1	15.2 µM	15.7	16.5	25.7 µM	0.147	5.82	3.07	8.2	0.319	13.9	1.08	0.264	0.315	5.56
CS(=O)(=O)Nc1cc(-c2ccc3ncnc(Nc4c(Cl)ccc5c4OCO5)c3c2)cnc1Cl	2.99	3.53 µM	3.42 µM	0.938	1.94	2.1	0.639 µM	3.93	4.76	0.127 µM	0.327	0.156	0.244	0.0403	0.255	0.164	0.0597	0.238	0.236	< 0.0135
C[C@H](Nc1cc(Cl)nc2c1cnn2[C@@H]1O[C@H](COP(=O)(O)CP(=O)(O)O)[C@@H](O)[C@H]1O)c1ccccc1F	> 100	> 100 µM	> 100 µM	> 100	> 100	> 100	> 100 µM	> 100	> 100	> 100 µM	> 100	> 100	> 100	> 100	> 100	> 100	> 100	> 100	> 100	32.3
Cc1cc2cc3c(=O)[nH]c(=O)[nH]c3nc2cc1C	> 100	> 100 µM	> 100 µM	> 100	> 100	> 100	> 100 µM	> 100	> 100	> 100 µM	–	–	–	–	–	–	–	–	–	–
Cn1c(=O)c(Oc2ccc(F)cc2)cc2cnc(NC3CCOCC3)nc21	> 25	> 25 µM	> 25 µM	> 18.6	> 25	> 25	> 25 µM	> 25	> 25	> 25 µM	> 25	> 25	> 25	> 10.5	> 25	> 25	4.72	> 25	> 25	13.4
CC1CCN(C(=O)OCc2nc3nc(Cl)nc(N4CCOCC4)c3[nH]2)CC1	2.07	5 µM	2.9 µM	2.05	4.81	2.73	1.06 µM	6.38	2.99	4.05 µM	0.551	1.76	1.55	0.692	1.94	1.31	0.0497	0.831	1.38	1.65
CC(C)=CCc1cc(O)cc2c1OC(C=C(C)C)C1=C2C(=O)C2=C(C1=O)S(=O)(=O)CCN2 (stereo not given)	16.5	> 16.7 µM	5.15 µM	> 16.7	> 16.7	12.5	> 16.7 µM	> 16.7	> 16.7	> 16.7 µM	5.34	5.66	2.78	6.23	6.14	4.34	6.05	6.61	5.23	9.61
C[Si](C)(C)/C(Br)=C\CCN1C(=O)CCC1=O	> 100	> 100 µM	> 100 µM	> 100	> 100	> 100	> 100 µM	> 100	> 100	> 100 µM	–	–	–	–	–	–	–	–	–	–
O=C(O)c1ccc(C(=O)O)c2c(C(=O)O)ccc(C(=O)O)c12	> 100	> 100 µM	> 100 µM	> 100	> 100	> 100	> 100 µM	> 100	> 100	> 100 µM	–	–	–	–	–	–	–	–	–	–
CC(=O)N1CCC(=O)/C(=C/c2ccccc2)C1	34.8	> 100 µM	> 100 µM	> 100	> 100	> 100	> 100 µM	38.8	> 100	> 100 µM	–	–	–	–	–	–	–	–	–	–
O=[N+]([O-])c1cccc2ccc(N/N=C/c3ccccc3O)nc12	> 100	> 100 µM	> 100 µM	> 100	> 100	> 100	> 100 µM	> 100	> 100	> 100 µM	3.88	> 100	> 100	> 39.9	> 100	> 100	> 100	> 100	> 100	> 100
CCOC(=O)/C=C/c1ccc(C#Cc2ccccc2)cc1	> 100	> 100 µM	> 100 µM	> 100	> 100	> 100	> 100 µM	> 100	> 100	> 100 µM	> 100	> 100	> 100	38.4	72.2	> 100	> 100	> 100	66.1	44.9
COc1ccc(C(O)(CCC(C)C)C(CN2CCOCC2)c2ccc(Cl)cc2)cc1 (stereo not given)	26.8	37.4 µM	52.4 µM	25.9	35	25.7	21.7 µM	20.1	31.6	23.4 µM	11.4	18.8	14.8	11.3	11.6	12.2	8	4.41	11.4	10.9
COc1ccccc1Nc1ncc(-c2ccccc2)o1	> 25	> 25 µM	> 25 µM	> 25	> 25	> 25	> 25 µM	> 25	> 25	> 25 µM	> 25	> 25	> 25	13.7	> 25	> 25	> 25	> 25	> 25	> 25
C=CCN1CCC23c4c5ccc(O)c4OC2C(=NN=C2CCC4(O)C6Cc7ccc(O)c8c7C4(CCN6CC=C)C2O8)CCC3(O)C1C5 (stereo not given)	48.9	44 µM	> 100 µM	> 100	42.8	> 100	39.9 µM	37.6	43.7	41.5 µM	–	–	–	–	–	–	–	–	–	–
COc1cc(/C=C/C(=O)c2cccc(-n3cc(-c4ccc(Cl)cc4)[nH]c3=O)c2)ccc1O	7.71	15 µM	15.6 µM	> 37	> 37.7	15.1	7.05 µM	> 100	21.7	16.7 µM	2.3	3.87	3.52	1.26	4.67	6.45	1.52	2.97	6.43	5.78
CSc1nc(NC2OC(COC(C)=O)C(OC(C)=O)C(OC(C)=O)C2OC(C)=O)c(N=CC=Nc2c(NC3OC(COC(C)=O)C(OC(C)=O)C(OC(C)=O)C3OC(C)=O)nc(SC)n(C)c2=O)c(=O)n1C (stereo not given)	> 100	50 µM and 29.8 µM	50 µM and 92.1 µM	> 100	> 100	> 100	50 µM and 64.5 µM	> 100	> 100	> 50 µM and 82.8 µM	> 50	21.2	21.1	> 50	> 50	> 50	14.8	> 50	> 50	> 50
CN(C)C(=S)Sc1ccc([N+](=O)[O-])cc1[N+](=O)[O-]	2.79	21.3 µM	25.1 µM	6.29	17.6	18.1	11.2 µM	1.67	4.57	22 µM	1.1	8.26	11	1.79	3.21	6.01	2.95	0.325	0.74	9.47
CCN(Cc1ccc(F)cc1)c1ccc(CO)c(Br)c1	> 41.2	20.2 µM	44.2 µM	> 40.3	21.3	0.225	6.23 µM	19.4	12.1	0.136 µM	0.475	0.646	15.7	2.89	0.614	0.0525	0.173	2.4	0.144	0.0272
COC(=O)C1=CN(CC2=CC(=O)C(C)=CC2=O)C=C(C(=O)OC)C1c1cccc(OC)c1	4.81	38.9 µM	> 79.2 µM	> 22.5	> 67.2	42	33.8 µM	> 100	49.7	34.6 µM	2.2	19.3	26	2.65	25.1	19	10.6	37	14.3	18.6
COc1ccc(-c2nsc3c2NC(=O)CC3c2cccc(OC)c2)cc1 (stereo not given)	> 100	33.9 µM	> 100 µM	> 100	> 100	> 100	43 µM	> 100	71.8	5.02 µM	0.412	2.41	3.47	3.1	0.714	3.79	2.31	0.427	0.534	0.408
O=S(=O)(Nc1ccc(Cl)cc1Cl)c1ccc(-c2cnc(C3CC3)o2)cc1	> 100	55.4 µM	> 100 µM	37.1	> 100	> 100	15.3 µM	30.6	> 40.4	0.875 µM	0.423	0.909	0.538	1.06	1.02	2.66	0.491	0.41	0.466	0.197
COC(=O)c1ccc2c(c1)/C(=C\c1cc(Br)c(O)c(Br)c1)C(=O)N2	> 25	> 25 µM	> 25 µM	> 25	> 25	> 25	17.4 µM	> 25	> 25	11 µM	8.4	10.5	12.4	6.84	8.19	13.5	2.45	4.3	7.57	3.48
COC12C(COC(N)=O)C3=C(C(=O)C(C)=C(N)C3=O)N1CC1C2N1C (stereo not given)	35.8	16.8 µM	62.5 µM	32.6	24.2	63.1	36.4 µM	43.2	1.86	21.2 µM	–	–	–	–	–	–	–	–	–	–
COc1cc2c3c(c1OC)-c1cc4c(cc1CC3(C#N)N(C(=O)c1ccccc1)CC2)OCO4 (stereo not given)	> 100	> 76.1 µM	46 µM	> 94.1	> 100	> 56.2	32.5 µM	> 100	> 100	82.3 µM	–	–	–	–	–	–	–	–	–	–
CS/C(=C(\S)c1ccccc1)c1ccccc1	> 100	> 100 µM	> 100 µM	> 100	> 100	> 100	> 100 µM	> 100	> 100	> 100 µM	–	–	–	–	–	–	–	–	–	–
Cc1ccc(Nc2oc(-c3ccccc3)nc2[P+](c2ccccc2)(c2ccccc2)c2ccccc2)cc1	2.05	3.24 µM	2.94 µM	1.65	3.23	4.38	1.02 µM	1.59	2.2	2.36 µM	0.675	1.34	1.04	0.44	0.938	1.63	0.209	0.38	0.804	0.697

— PubChem BioAssay (NCI)
